Measurements: patent US20090215822A1, “Substituted Oxadiazole Derivatives as Positive Allosteric Modulators of Metabotropic Glutamate Receptors” (NIKEM RESEARCH SRL, priority 2005, published 2009)

Experiments:
[1] = biological target: T1, rat mGluR5 receptor (Rattus norvegicus, UniProt P31424); assay: mGluR5 assay on HEK-expressing rat mGluR5 (fluorescent cell based Ca2+ mobilization assay); settings: HEK-293 cells stably expressing rat mGluR5; no co-addition of glutamate; mean of at least three independent experiments in duplicate; read-out: Ca++ Flux (mean EC50)
T1 construct: expressed in transfected cells
Description: Positive functional expression of HEK-293 cells stably expressing rat mGluR5 receptor was determined by measuring intracellular Ca^2+ changes using a Fluorometric Imaging Plate Reader (FLIPR, Molecular Devices, Sunnyvale, Calif.) in response to glutamate or selective known mGluR5 agonists and antagonists. Rat mGluR5 RT-PCR products in HEK-293 cells were sequenced and found 100% identical to rat mGluR5 Genbank reference sequence (NM_017012). HEK-293 cells expressing rmGluR5 were maintained in media containing DMEM, dialyzed Fetal Bovine Serum (10%), Glutamax™ (2 mM), Penicillin (100 units/ml), Streptomycin (100 μg/ml), Geneticin (100 μg/ml) and Hygromycin-B (40 μg/ml) at 37° C./5% CO2.
After one day of incubation, cells were washed with assay buffer containing: 142 mM NaCl, 6 mM KCl, 1 mM Mg2SO4, 1 mM CaCl2, 20 mM HEPES, 1 g/L glucose, 0.125 mM sulfinpyrazone, pH 7.4. After 60 min of loading with 4 uM Fluo-4 (TefLabs, Austin, Tex.), the cells were washed three times with 50 μl of PBS Buffer and resuspended in […] of assay Buffer. The plates were then transferred to a Fluorometric Imaging Plate Reader (FLIPR, Molecular Devices, Sunnyvale, Calif.) for the assessment of intracellular calcium flux. After monitoring the baseline fluorescence for 10 seconds, increasing concentrations of representative compound (from 0.01 to 60 μM) of the present invention diluted in Assay Buffer (15 μl of 4× dilutions) was added to the cell. The final DMSO concentration in the assay was 0.3%. In each experiment, fluorescence was then monitored as a function of time for 3 minutes and the data analyzed using Microsoft Excel and GraphPad Prism. Each data point was also measured two times.
Under these experimental conditions, this HEK-rat mGluR5 cell line is able to directly detect positive allosteric modulators without the need of co-addition of glutamate or mGluR5 agonist.
The concentration-response curves of representative compounds of the present invention were generated using the Prism GraphPad software (Graph Pad Inc, San Diego, USA). The curves were fitted to a four-parameter logistic equation:
(Y=Bottom+(Top-Bottom)/(1+10̂((Log EC50−X)*Hill Slope)
allowing determination of EC50 values.
The Table 1 below represents the mean EC50 obtained from at least three independent experiments of selected molecules performed in duplicate.

[2] = biological target: T2, mGluR5 (Rattus norvegicus, UniProt P31424); assay: mGluR5 binding assay ([3H]-MPEP, rat brain membranes); settings: 3 nM [3H]-MPEP, rat cortical membranes, 1 h at 4° C.; read-out: IC50, inhibition of [3H]-MPEP binding
T2 construct: positive allosteric modulators of mGluR5 receptors in native preparations; endogenous in cells; host or cells: primary cortical astrocytes from Sprague-Dawley rat embryos (E16-19)
From the text: Activity of compounds of the invention was examined following a radioligand binding technique using whole rat brain and tritiated 2-methyl-6-(phenylethynyl)-pyridine ([^3H]-MPEP) as a ligand following similar methods than those described in Gasparini et al. (2002) Bioorg. Med. Chem. Lett. 12:407-409 and in Anderson et al. (2002) J. Pharmacol. Exp. Ther. 303 (3) 1044-1051.
Cortices were dissected out from brains of 200-300 g Sprague-Dawley rats (Charles River Laboratories, L'Arbresle, France). Tissues were homogenized in 10 volumes (vol/wt) of ice-cold 50 mM Hepes-NaOH (pH 7.4) using a Polytron disrupter (Kinematica A G, Luzern, Switzerland) and centrifuged for 30 min at 40,000 g. (4° C.). […] Protein concentration was determined by the Bradford method (Bio-Rad protein assay, Reinach, Switzerland) with bovine serum albumin as standard.
Membranes were thawed and resuspended in binding buffer containing 20 mM HEPES-NaOH, 3 mM MgCl2, 3 mM CaCl2, 100 mM NaCl, pH 7.4. […] Radioactivity was determined by liquid scintillation spectrometry using a 96-well plate reader (TopCount, Perkin-Elmer, Downers Grove, USA).
The inhibition curves were generated using the Prism GraphPad program (Graph Pad Software Inc, San Diego, USA). […] The mean of IC50 obtained from at least three independent experiments of selected molecules performed in duplicate were calculated.

[3] = test system: Male C57BL6/j mice; assay: Amphetamine model of schizophrenia (amphetamine-induced locomotor activity); assay type: in vivo; settings: 30 mg/kg ip, 120 min before amphetamine 3.0 mg/kg s.c., first 30 minutes of a 60 minute session
From the text: Amphetamine-induced increases in locomotor ambulation are well known and are widely used as a model of the positive symptoms of schizophrenia. This model is based on evidence that amphetamine increases motor behaviors and can induce a psychotic state in humans (Yui et al. (2000) Ann. N.Y. Acad. Sci. 914:1-12). Further, it is well known that amphetamine-induced increases in locomotor activity are blocked by antipsychotics drugs that are effective in the treatment of schizophrenia (Arnt (1995) Eur. J. Pharmacol. 283:55-62).
Subjects: The present studies were performed in accordance with the animal care and use policies of Addex Pharmaceuticals and the laws and directives of Switzerland governing the care and use of animals. Male C57BL6/j mice (20-30 g) 7 weeks of age at the time of delivery were group housed in a temperature and humidity controlled facility on a 12 hour light/dark cycle for at least 7 days before use. Mice had access to food and water ad libitum except during locomotor activity experiments.
Assessment of locomotor (ambulatory) activity: The effects of compounds on amphetamine-induced locomotor activation in mice were tested. […] Locomotor activity (ambulations) was monitored by a videotracking system (VideoTrack, Viewpoint, Champagne au Mont d'Or, France) that recorded the ambulatory movements of mice. […] On test days, test compounds (10, 30, 50 or 100 mg/kg i.p. (intraperitoneal)) or vehicle were administered 120 minutes before amphetamine (3.0 mg/kg s.c.) or saline injection: Mice were placed into the locomotor boxes immediately after amphetamine or saline vehicle injection and their locomotor activity, defined as the distance traveled in centimeters (cm), was measured for 60 minutes.
Compound administration: The test compound was dissolved in a 5% DMSO/20% Tween 80/75% saline vehicle and administered in a volume of 10 ml/kg. […] D-amphetamine sulfate (Amino A G, Neuenhof, Switzerland) was dissolved in saline and administered at a dose of 3.0 mg/kg s.c. (expressed as the base) in a volume of 10 ml/kg. […]

T2 sequence (P31424 21-1203): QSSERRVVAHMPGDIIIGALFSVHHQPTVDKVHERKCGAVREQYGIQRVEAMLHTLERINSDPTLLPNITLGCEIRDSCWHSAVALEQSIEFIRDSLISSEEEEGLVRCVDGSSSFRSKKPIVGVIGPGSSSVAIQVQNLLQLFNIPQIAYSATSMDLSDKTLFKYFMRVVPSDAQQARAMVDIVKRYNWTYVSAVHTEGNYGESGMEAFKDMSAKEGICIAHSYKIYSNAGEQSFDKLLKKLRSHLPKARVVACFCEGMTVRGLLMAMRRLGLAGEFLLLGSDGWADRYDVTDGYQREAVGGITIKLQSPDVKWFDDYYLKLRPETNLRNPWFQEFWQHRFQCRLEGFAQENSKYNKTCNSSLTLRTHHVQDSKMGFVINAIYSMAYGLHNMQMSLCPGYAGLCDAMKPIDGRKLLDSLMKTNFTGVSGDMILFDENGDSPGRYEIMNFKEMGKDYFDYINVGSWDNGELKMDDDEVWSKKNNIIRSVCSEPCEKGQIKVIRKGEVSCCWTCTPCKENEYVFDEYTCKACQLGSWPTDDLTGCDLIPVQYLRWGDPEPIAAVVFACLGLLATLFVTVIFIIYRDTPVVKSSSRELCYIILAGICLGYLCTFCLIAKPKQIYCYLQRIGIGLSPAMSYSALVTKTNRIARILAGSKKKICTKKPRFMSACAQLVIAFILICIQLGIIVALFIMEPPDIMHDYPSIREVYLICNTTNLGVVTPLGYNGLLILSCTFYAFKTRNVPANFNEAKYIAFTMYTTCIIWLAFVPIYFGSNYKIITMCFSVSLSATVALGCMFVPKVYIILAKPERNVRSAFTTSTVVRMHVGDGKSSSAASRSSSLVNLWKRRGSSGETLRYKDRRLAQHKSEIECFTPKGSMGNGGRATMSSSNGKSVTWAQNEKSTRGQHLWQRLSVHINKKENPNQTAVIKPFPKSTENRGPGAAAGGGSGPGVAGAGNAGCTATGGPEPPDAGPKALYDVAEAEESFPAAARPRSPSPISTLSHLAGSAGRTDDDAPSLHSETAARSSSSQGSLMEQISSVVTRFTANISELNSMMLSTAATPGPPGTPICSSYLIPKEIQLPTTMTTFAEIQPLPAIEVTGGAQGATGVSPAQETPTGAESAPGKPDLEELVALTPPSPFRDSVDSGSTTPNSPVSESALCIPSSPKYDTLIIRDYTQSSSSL
T1 sequence (P31424 21-1171 isoform P31424-2 limits assumed): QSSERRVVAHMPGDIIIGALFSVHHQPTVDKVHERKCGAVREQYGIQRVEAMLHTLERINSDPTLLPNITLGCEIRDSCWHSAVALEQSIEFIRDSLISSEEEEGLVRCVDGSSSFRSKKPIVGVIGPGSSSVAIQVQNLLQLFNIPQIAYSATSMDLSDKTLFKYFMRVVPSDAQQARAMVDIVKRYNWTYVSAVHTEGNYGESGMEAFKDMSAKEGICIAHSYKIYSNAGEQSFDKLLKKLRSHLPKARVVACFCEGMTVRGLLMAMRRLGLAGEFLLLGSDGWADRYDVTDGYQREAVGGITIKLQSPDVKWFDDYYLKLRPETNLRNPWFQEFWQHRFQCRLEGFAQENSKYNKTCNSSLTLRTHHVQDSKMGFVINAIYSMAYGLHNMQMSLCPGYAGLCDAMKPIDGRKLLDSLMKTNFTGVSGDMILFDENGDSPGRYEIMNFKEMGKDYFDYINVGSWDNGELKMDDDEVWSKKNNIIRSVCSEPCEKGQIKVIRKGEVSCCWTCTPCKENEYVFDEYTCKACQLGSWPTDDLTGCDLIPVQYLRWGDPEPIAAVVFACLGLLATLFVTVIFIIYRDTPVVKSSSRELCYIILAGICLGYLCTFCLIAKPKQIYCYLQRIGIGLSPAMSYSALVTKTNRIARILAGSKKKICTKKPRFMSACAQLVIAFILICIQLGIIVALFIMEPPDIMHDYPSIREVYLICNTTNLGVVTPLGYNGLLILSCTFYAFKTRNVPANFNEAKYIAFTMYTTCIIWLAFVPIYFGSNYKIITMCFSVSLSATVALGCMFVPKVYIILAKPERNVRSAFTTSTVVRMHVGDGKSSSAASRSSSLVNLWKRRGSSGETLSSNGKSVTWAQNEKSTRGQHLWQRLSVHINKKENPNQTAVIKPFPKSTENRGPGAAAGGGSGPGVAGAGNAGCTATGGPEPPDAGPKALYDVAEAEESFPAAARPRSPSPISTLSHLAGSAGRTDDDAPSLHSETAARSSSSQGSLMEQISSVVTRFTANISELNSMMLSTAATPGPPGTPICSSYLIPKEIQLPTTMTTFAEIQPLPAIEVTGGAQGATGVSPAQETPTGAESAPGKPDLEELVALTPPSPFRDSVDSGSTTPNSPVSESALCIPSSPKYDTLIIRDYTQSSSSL

## O=C(c1ccc(F)cc1)N1CCC[C@H](c2noc(-c3ccc(F)cc3)n2)C1 [Example 1, (4-Fluoro-phenyl)-{(S)-3-[5-(4-fluoro-phenyl)-[1,2,4]oxadiazol-3-yl]-piperidin-1-yl}-methanone]
[1]
  EC50: < 1 µM
[2]
  IC50: < 30 µM
[3]
  increase in locomotor activity induced by amphetamine: significantly attenuated
[3]; listed as compound # 1
  increase in locomotor activity induced by amphetamine: significantly attenuated
[3]; listed as example #1
  increase in locomotor activity induced by amphetamine: significantly attenuate
other
  melting point: 157 to 160 °C
